{"source": "patent US9980943B2", "about": "“Methods of treating muscular dystrophy” (BOARD OF REGENTS OF THE NEVADA SYSTEM OF HIGHER EDUCATION, …, priority 2013, dated 2018)", "assay_type_in_all_cases": "cell-based, mouse", "key": {"[1]": {"system": "α7 integrin (LacZ reporter in α7+/LacZ myotubes)", "experiment": "Myotube α7 integrin FDG assay (Burkin assay in myotubes, 96-well)", "conditions": "myotubes"}, "[2]": {"system": "β-galactosidase in CMV-LacZ C2C12 myotubes", "experiment": "CMV-LacZ secondary screen in C2C12 myotubes (β-Gal stabilizing assay)", "conditions": "C2C12 CMV-LacZ myotubes, fold relative to DMSO", "method_in_brief": "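Dose-response runs at 0.5–40 μM (0.5, 1, 5, 10, 20, 40 μM; N=2 per point) used a clonal C2C12 line carrying CMV-LacZ. Cells were assayed as myoblasts or as differentiated myotubes, and β-galactosidase levels were read with the FDG fluorogenic substrate.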"}, "[3]": {"system": "α7 integrin (LacZ reporter in α7βgal+/− myoblasts)", "experiment": "Myoblast α7+/LacZ integrin FDG assay (Burkin assay in myoblasts, 96-well)", "conditions": "α7+/LacZ myoblasts, 96-well"}, "[4]": {"system": "β-galactosidase in CMV-LacZ C2C12 myoblasts", "experiment": "CMV-LacZ secondary screen in C2C12 myoblasts (β-Gal stabilizing assay)", "conditions": "CMV-LacZ C2C12 myoblasts", "method_in_brief": "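A secondary screen identifies compounds that stabilize β-gal independently of the native promoter, using CMV-LacZ C2C12 cells. Curves span 0.5–40 μM at six levels, in duplicate.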"}}, "data": [{"compound": "CSc1ccc(S(=O)(=O)NCc2ccccc2)cc1", "note": "[MLS000531177-01]", "values": [{"measurement": "Burkin Assay in Myotubes, α7 integrin LacZ reporter signal relative to DMSO", "setting": "[1]; 0.5 uM", "value": 0.8259}, {"measurement": "Burkin Assay in Myotubes, α7 integrin LacZ reporter signal relative to DMSO", "setting": "[1]; 1 uM", "value": 0.7329}, {"measurement": "Burkin Assay in Myotubes, α7 integrin LacZ reporter signal relative to DMSO", "setting": "[1]; 5 uM", "value": 1.051}, {"measurement": "Burkin Assay in Myotubes, α7 integrin LacZ reporter signal relative to DMSO", "setting": "[1]; 10 uM", "value": 1.163}, {"measurement": "Burkin Assay in Myotubes, α7 integrin LacZ reporter signal relative to DMSO", "setting": "[1]; 20 uM", "value": 0.8007}, {"measurement": "Burkin Assay in Myotubes, α7 integrin LacZ reporter signal relative to DMSO", "setting": "[1]; 40 uM", "value": 0.9005}, {"measurement": "CMV-LACZ in Myotubes, signal relative to DMSO", "setting": "[2]; 0.5 uM", "value": 1.1989}, {"measurement": "CMV-LACZ in Myotubes, signal relative to DMSO", "setting": "[2]; 1 uM", "value": 1.0411}, {"measurement": "CMV-LACZ in Myotubes, signal relative to DMSO", "setting": "[2]; 5 uM", "value": 0.8757}, {"measurement": "CMV-LACZ in Myotubes, signal relative to DMSO", "setting": "[2]; 10 uM", "value": 0.8917}, {"measurement": "CMV-LACZ in Myotubes, signal relative to DMSO", "setting": "[2]; 20 uM", "value": 0.9244}, {"measurement": "CMV-LACZ in Myotubes, signal relative to DMSO", "setting": "[2]; 40 uM", "value": 1.1522}, {"measurement": "Burkin Assay in Myoblasts, signal relative to DMSO", "setting": "[3]; 0.5 uM", "value": 0.8826}, {"measurement": "Burkin Assay in Myoblasts, signal relative to DMSO", "setting": "[3]; 1 uM", "value": 0.923}, {"measurement": "Burkin Assay in Myoblasts, signal relative to DMSO", "setting": "[3]; 5 uM", "value": 1.067}, {"measurement": "Burkin Assay in Myoblasts, signal relative to DMSO", "setting": "[3]; 10 uM", "value": 1.625}, {"measurement": "Burkin Assay in Myoblasts, signal relative to DMSO", "setting": "[3]; 20 uM", "value": 1.014}, {"measurement": "Burkin Assay in Myoblasts, signal relative to DMSO", "setting": "[3]; 40 uM", "value": 0.8008}, {"measurement": "CMV-LACZ in Myoblasts (β-galactosidase activity relative to DMSO)", "setting": "[4]; 0.5 uM", "value": 1.0785}, {"measurement": "CMV-LACZ in Myoblasts (β-galactosidase activity relative to DMSO)", "setting": "[4]; 1 uM", "value": 1.5065}, {"measurement": "CMV-LACZ in Myoblasts (β-galactosidase activity relative to DMSO)", "setting": "[4]; 5 uM", "value": 1.0150}, {"measurement": "CMV-LACZ in Myoblasts (β-galactosidase activity relative to DMSO)", "setting": "[4]; 10 uM", "value": 0.8958}, {"measurement": "CMV-LACZ in Myoblasts (β-galactosidase activity relative to DMSO)", "setting": "[4]; 20 uM", "value": 1.2952}, {"measurement": "CMV-LACZ in Myoblasts (β-galactosidase activity relative to DMSO)", "setting": "[4]; 40 uM", "value": 0.9422}]}, {"compound": "COc1cc(C=O)ccc1OCC(=O)Nc1ccc2c(c1)OCO2", "note": "[MLS001123876-01]", "values": [{"measurement": "Burkin Assay in Myotubes, α7 integrin LacZ reporter signal relative to DMSO", "setting": "[1]; 0.5 uM", "value": 0.866}, {"measurement": "Burkin Assay in Myotubes, α7 integrin LacZ reporter signal relative to DMSO", "setting": "[1]; 1 uM", "value": 0.8193}, {"measurement": "Burkin Assay in Myotubes, α7 integrin LacZ reporter signal relative to DMSO", "setting": "[1]; 5 uM", "value": 1.1689}, {"measurement": "Burkin Assay in Myotubes, α7 integrin LacZ reporter signal relative to DMSO", "setting": "[1]; 10 uM", "value": 1.232}, {"measurement": "Burkin Assay in Myotubes, α7 integrin LacZ reporter signal relative to DMSO", "setting": "[1]; 20 uM", "value": 0.7114}, {"measurement": "Burkin Assay in Myotubes, α7 integrin LacZ reporter signal relative to DMSO", "setting": "[1]; 40 uM", "value": 1.003}, {"measurement": "CMV-LACZ in Myotubes, signal relative to DMSO", "setting": "[2]; 0.5 uM", "value": 0.8962}, {"measurement": "CMV-LACZ in Myotubes, signal relative to DMSO", "setting": "[2]; 1 uM", "value": 1.4943}, {"measurement": "CMV-LACZ in Myotubes, signal relative to DMSO", "setting": "[2]; 5 uM", "value": 0.9002}, {"measurement": "CMV-LACZ in Myotubes, signal relative to DMSO", "setting": "[2]; 10 uM", "value": 0.9279}, {"measurement": "CMV-LACZ in Myotubes, signal relative to DMSO", "setting": "[2]; 20 uM", "value": 0.9880}, {"measurement": "CMV-LACZ in Myotubes, signal relative to DMSO", "setting": "[2]; 40 uM", "value": 1.0300}, {"measurement": "Burkin Assay in Myoblasts, signal relative to DMSO", "setting": "[3]; 0.5 uM", "value": 1.041}, {"measurement": "Burkin Assay in Myoblasts, signal relative to DMSO", "setting": "[3]; 1 uM", "value": 0.8264}, {"measurement": "Burkin Assay in Myoblasts, signal relative to DMSO", "setting": "[3]; 5 uM", "value": 1.44}, {"measurement": "Burkin Assay in Myoblasts, signal relative to DMSO", "setting": "[3]; 10 uM", "value": 1.095}, {"measurement": "Burkin Assay in Myoblasts, signal relative to DMSO", "setting": "[3]; 20 uM", "value": 0.9339}, {"measurement": "Burkin Assay in Myoblasts, signal relative to DMSO", "setting": "[3]; 40 uM", "value": 0.8844}, {"measurement": "CMV-LACZ in Myoblasts (β-galactosidase activity relative to DMSO)", "setting": "[4]; 0.5 uM", "value": 0.8260}, {"measurement": "CMV-LACZ in Myoblasts (β-galactosidase activity relative to DMSO)", "setting": "[4]; 1 uM", "value": 1.0263}, {"measurement": "CMV-LACZ in Myoblasts (β-galactosidase activity relative to DMSO)", "setting": "[4]; 5 uM", "value": 0.9251}, {"measurement": "CMV-LACZ in Myoblasts (β-galactosidase activity relative to DMSO)", "setting": "[4]; 10 uM", "value": 0.9871}, {"measurement": "CMV-LACZ in Myoblasts (β-galactosidase activity relative to DMSO)", "setting": "[4]; 20 uM", "value": 0.9618}, {"measurement": "CMV-LACZ in Myoblasts (β-galactosidase activity relative to DMSO)", "setting": "[4]; 40 uM", "value": 0.7333}]}, {"compound": "CCN(CC(=O)NCc1cccs1)C(=O)COc1ccc(C(N)=O)cc1", "note": "[MLS002163101-01]", "values": [{"measurement": "Burkin Assay in Myotubes, α7 integrin LacZ reporter signal relative to DMSO", "setting": "[1]; 0.5 uM", "value": 1.045}, {"measurement": "Burkin Assay in Myotubes, α7 integrin LacZ reporter signal relative to DMSO", "setting": "[1]; 1 uM", "value": 0.9075}, {"measurement": "Burkin Assay in Myotubes, α7 integrin LacZ reporter signal relative to DMSO", "setting": "[1]; 5 uM", "value": 1.101}, {"measurement": "Burkin Assay in Myotubes, α7 integrin LacZ reporter signal relative to DMSO", "setting": "[1]; 10 uM", "value": 1.302}, {"measurement": "Burkin Assay in Myotubes, α7 integrin LacZ reporter signal relative to DMSO", "setting": "[1]; 20 uM", "value": 0.7782}, {"measurement": "Burkin Assay in Myotubes, α7 integrin LacZ reporter signal relative to DMSO", "setting": "[1]; 40 uM", "value": 0.9761}, {"measurement": "CMV-LACZ in Myotubes, signal relative to DMSO", "setting": "[2]; 0.5 uM", "value": 1.0533}, {"measurement": "CMV-LACZ in Myotubes, signal relative to DMSO", "setting": "[2]; 1 uM", "value": 1.1400}, {"measurement": "CMV-LACZ in Myotubes, signal relative to DMSO", "setting": "[2]; 5 uM", "value": 0.8302}, {"measurement": "CMV-LACZ in Myotubes, signal relative to DMSO", "setting": "[2]; 10 uM", "value": 0.8407}, {"measurement": "CMV-LACZ in Myotubes, signal relative to DMSO", "setting": "[2]; 20 uM", "value": 0.9212}, {"measurement": "CMV-LACZ in Myotubes, signal relative to DMSO", "setting": "[2]; 40 uM", "value": 1.5447}, {"measurement": "Burkin Assay in Myoblasts, signal relative to DMSO", "setting": "[3]; 0.5 uM", "value": 0.9552}, {"measurement": "Burkin Assay in Myoblasts, signal relative to DMSO", "setting": "[3]; 1 uM", "value": 0.9442}, {"measurement": "Burkin Assay in Myoblasts, signal relative to DMSO", "setting": "[3]; 5 uM", "value": 0.9699}, {"measurement": "Burkin Assay in Myoblasts, signal relative to DMSO", "setting": "[3]; 10 uM", "value": 1.251}, {"measurement": "Burkin Assay in Myoblasts, signal relative to DMSO", "setting": "[3]; 20 uM", "value": 0.9457}, {"measurement": "Burkin Assay in Myoblasts, signal relative to DMSO", "setting": "[3]; 40 uM", "value": 0.9775}, {"measurement": "CMV-LACZ in Myoblasts (β-galactosidase activity relative to DMSO)", "setting": "[4]; 0.5 uM", "value": 0.9991}, {"measurement": "CMV-LACZ in Myoblasts (β-galactosidase activity relative to DMSO)", "setting": "[4]; 1 uM", "value": 1.0317}, {"measurement": "CMV-LACZ in Myoblasts (β-galactosidase activity relative to DMSO)", "setting": "[4]; 5 uM", "value": 1.0262}, {"measurement": "CMV-LACZ in Myoblasts (β-galactosidase activity relative to DMSO)", "setting": "[4]; 10 uM", "value": 1.0313}, {"measurement": "CMV-LACZ in Myoblasts (β-galactosidase activity relative to DMSO)", "setting": "[4]; 20 uM", "value": 0.9644}, {"measurement": "CMV-LACZ in Myoblasts (β-galactosidase activity relative to DMSO)", "setting": "[4]; 40 uM", "value": 1.1556}]}]}
